One may read the viability as a read-out of living cells in per cent, often relative to untreated cells.

This series in a line: in vitro. The conditions noted are these: human, hek293t cells.
As to `C=CC(=O)N1CCC(C(=O)NCc2nccn2C)(c2ccccc2)CC1` [3-I10, N-[(1-methyl-1H-imidazol-2-yl)methyl]-4-phenyl-1-(prop-2-enoyl)piperidine-4-carboxamide], the viability at 48 h, 25 µM came to 92.9%.
In the case of `C=CC(=O)N1CCOC2(CCCC2)C1` [3-I11, 1-{6-oxa-9-azaspiro[4.5]decan-9-yl}prop-2-en-1-one], the viability at 48 h, 25 µM was 44.3%.
Next, `C=CC(=O)N1CC(C)OC2(CCOCC2)C1` (centres unmarked) [3-I12, 1-{2-methyl-1,9-dioxa-4-azaspiro[5.5]undecan-4-yl}prop-2-en-1-one]: 91.6%; `C=CC(=O)N1CCC(C(=O)Nc2nc3cc(F)ccc3n2CC)CC1` [3-I13, N-(1-ethyl-5-fluoro-1H-1,3-benzodiazol-2-yl)-1-(prop-2-enoyl)piperidine-4-carboxamide]: 62.5%; `C=CC(=O)N(C)CC(=O)NC(C)c1ncc(C)s1` (centres unmarked) [3-I14, N-methyl-N-({[1-(5-methyl-1,3-thiazol-2-yl)ethyl]carbamoyl}methyl)prop-2-enamide]: 69.4%.
In the case of `C=CC(=O)N1CC(OCc2ccccc2F)C1` [3-I15, 1-{3-[(2-fluorophenyl)methoxy]azetidin-1-yl}prop-2-en-1-one], the viability at 48 h, 25 µM turned out to be 40.4%.
Consider `C=CC(=O)N1CCN(Cc2ncon2)CC1` [3-I16, 1-{4-[(1,2,4-oxadiazol-3-yl)methyl]piperazin-1-yl}prop-2-en-1-one], for which the viability at 48 h, 25 µM is 106%.
For the compound `C=CC(=O)N1CCC(C(=O)NC2CCCc3nc(C)ncc32)CC1` (centres unmarked) [3-I17, N-(2-methyl-5,6,7,8-tetrahydroquinazolin-5-yl)-1-(prop-2-enoyl)piperidine-4-carboxamide], the viability at 48 h, 25 µM was 32%.
As for `C=CC(=O)N1CC[C@H](Oc2ccccc2)C1` [3-I18, 1-[(3S)-3-phenoxypyrrolidin-1-yl]prop-2-en-1-one], the viability at 48 h, 25 µM amounted to 103%.
In the case of `C=CC(=O)N1CCOCC1c1ccnn1C` (centres unmarked) [3-I19, 1-[3-(1-methyl-1H-pyrazol-5-yl)morpholin-4-yl]prop-2-en-1-one], the viability at 48 h, 25 µM turned out to be 49.7%.
Regarding `C=CC(=O)NCc1ccc(N2CCN(C)CC2)cc1` [3-I20, N-{[4-(4-methylpiperazin-1-yl)phenyl]methyl}prop-2-enamide], the viability at 48 h, 25 µM came to 112%.
`C=CC(=O)N1CCC(C(=O)NC2CCN(C(=O)C(C)(C)C)CC2)CC1` [3-I21, N-[1-(2,2-dimethylpropanoyl)piperidin-4-yl]-1-(prop-2-enoyl)piperidine-4-carboxamide]: the viability at 48 h, 25 µM is 52.8%.
For `C=CC(=O)N1CCC(c2nc3c(s2)CCC3)CC1` [3-I22, 1-(4-{4H,5H,6H-cyclopenta[d][1,3]thiazol-2-yl}piperidin-1-yl)prop-2-en-1-one] the value was 91.2%.
As to `C=CC(=O)N1CCC(C(=O)NCCn2c(=O)[nH]c3ccccc32)CC1` [3-J03, N-[2-(2-oxo-2,3-dihydro-1H-1,3-benzodiazol-1-yl)ethyl]-1-(prop-2-enoyl)piperidine-4-carboxamide], the viability at 48 h, 25 µM was 72.2%.
In the case of `C=CC(=O)Nc1cc(NC(=O)c2ccc([N+](=O)[O-])o2)ccc1F` [3-J04, N-[4-fluoro-3-(prop-2-enamido)phenyl]-5-nitrofuran-2-carboxamide], the viability at 48 h, 25 µM was determined as 0.415%.
As to `C=CC(=O)N1CCC(C(=O)Nc2c[nH]c(=O)c(C)c2)CC1` [3-J05, N-(5-methyl-6-oxo-1,6-dihydropyridin-3-yl)-1-(prop-2-enoyl)piperidine-4-carboxamide], the viability at 48 h, 25 µM is 51.5%.
`C=CC(=O)N1CCC(C(=O)N2CC=CCC2)(c2ccccc2)CC1` [3-J06, 1-[4-phenyl-4-(1,2,3,6-tetrahydropyridine-1-carbonyl)piperidin-1-yl]prop-2-en-1-one]: the viability at 48 h, 25 µM turned out to be 61.7%.
Regarding `C=CC(=O)N(C)CC(=O)Nc1ccc(N2CCOCC2=O)c(C)c1` [3-J07, N-methyl-N-({[3-methyl-4-(3-oxomorpholin-4-yl)phenyl]carbamoyl}methyl)prop-2-enamide], the viability at 48 h, 25 µM was found to be 51.4%.
In the case of `C=CC(=O)N1CCC(C(=O)NCc2ccc(C(N)=O)cc2)CC1` [3-J08, N-[(4-carbamoylphenyl)methyl]-1-(prop-2-enoyl)piperidine-4-carboxamide], the viability at 48 h, 25 µM was 82.2%.
Consider `C=CC(=O)NCCc1nnc(-c2ccccc2)o1` [3-J09, N-[2-(5-phenyl-1,3,4-oxadiazol-2-yl)ethyl]prop-2-enamide], for which the viability at 48 h, 25 µM is 70.8%.
Next, `C=CC(=O)NCc1nc2ccccc2c(=O)n1C` [3-J10, N-[(3-methyl-4-oxo-3,4-dihydroquinazolin-2-yl)methyl]prop-2-enamide]: 88.6%; `C=CC(=O)N(Cc1ccc(-n2cncn2)cc1)C1CC1` [3-J11, N-cyclopropyl-N-{[4-(1H-1,2,4-triazol-1-yl)phenyl]methyl}prop-2-enamide]: 40.7%.
Take `C=CC(=O)N1CCC(C(=O)Nc2ccc(CC)cc2)CC1` [3-J12, N-(4-ethylphenyl)-1-(prop-2-enoyl)piperidine-4-carboxamide]: the viability at 48 h, 25 µM was determined as 85.6%.
In the case of `C=CC(=O)NCc1csc2nccn12` [3-J13, N-({imidazo[2,1-b][1,3]thiazol-3-yl}methyl)prop-2-enamide], the viability at 48 h, 25 µM is 76.8%.
Next, `C=CC(=O)N1CCOCC2(COCCN2C)C1` (centres unmarked) [3-J14, 1-{1-methyl-4,8-dioxa-1,11-diazaspiro[5.6]dodecan-11-yl}prop-2-en-1-one]: 96%; `C=CC(=O)NCC1CS(=O)(=O)c2ccccc21` (centres unmarked) [3-J15, N-[(1,1-dioxo-2,3-dihydro-1lambda6-benzothiophen-3-yl)methyl]prop-2-enamide]: 81.2%.
Next, `C=CC(=O)Nc1ccc(-n2ccccc2=O)cc1F` [3-J16, N-[2-fluoro-4-(2-oxo-1,2-dihydropyridin-1-yl)phenyl]prop-2-enamide]: 101%.
Turning to `C=CC(=O)NCCS(=O)(=O)c1cccs1` [3-J17, N-[2-(thiophene-2-sulfonyl)ethyl]prop-2-enamide], the viability at 48 h, 25 µM is 93.4%.
As to `C=CC(=O)N1CCC(C(=O)Nc2n[nH]c3cc(C#N)c(C)cc23)CC1` [3-J18, N-(6-cyano-5-methyl-1H-indazol-3-yl)-1-(prop-2-enoyl)piperidine-4-carboxamide], the viability at 48 h, 25 µM was 90.3%.
For `C=CC(=O)NCc1ccc(N2CC(C)CS2(=O)=O)cc1` (centres unmarked) [3-J19, N-{[4-(4-methyl-1,1-dioxo-1lambda6,2-thiazolidin-2-yl)phenyl]methyl}prop-2-enamide], the viability at 48 h, 25 µM came to 95.4%.
As to `C=CC(=O)NC(c1ccc(F)cc1)c1ccn(C)n1` (centres unmarked) [3-J20, N-[(4-fluorophenyl)(1-methyl-1H-pyrazol-3-yl)methyl]prop-2-enamide], the viability at 48 h, 25 µM came out at 99.9%.
Next, `C=CC(=O)N(Cc1cn2ccccc2n1)C1CC1` [3-J21, N-cyclopropyl-N-({imidazo[1,2-a]pyridin-2-yl}methyl)prop-2-enamide]: 73.1%.
In the case of `C=CC(=O)NCCC(=O)N1CCN(c2ccccc2Cl)CC1` [3-J22, N-{3-[4-(2-chlorophenyl)piperazin-1-yl]-3-oxopropyl}prop-2-enamide], the viability at 48 h, 25 µM came to 88.6%.
`C=CC(=O)N1CCC(C(O)c2ccnn2C)CC1` (centres unmarked) [3-K03, 1-{4-[hydroxy(1-methyl-1H-pyrazol-5-yl)methyl]piperidin-1-yl}prop-2-en-1-one]: the viability at 48 h, 25 µM amounted to 59%.
Next, `C=CC(=O)NCCC(=O)N1CCOC(c2nc(C)cs2)C1` (centres unmarked) [3-K04, N-{3-[2-(4-methyl-1,3-thiazol-2-yl)morpholin-4-yl]-3-oxopropyl}prop-2-enamide]: 89.7%; `C=CC(=O)N1CCC(C(=O)NOC2CCCC2)(c2ccccc2)CC1` [3-K06, N-(cyclopentyloxy)-4-phenyl-1-(prop-2-enoyl)piperidine-4-carboxamide]: 77.1%.
As for `C=CC(=O)N1CCCC1(COC)C(N)=O` (centres unmarked) [3-K07, 2-(methoxymethyl)-1-(prop-2-enoyl)pyrrolidine-2-carboxamide], the viability at 48 h, 25 µM stood at 143%.
As for `C=CC(=O)NCc1ccc(C(=O)N2CCC(c3ccn[nH]3)CC2)cc1` [3-K08, N-({4-[4-(1H-pyrazol-5-yl)piperidine-1-carbonyl]phenyl}methyl)prop-2-enamide], the viability at 48 h, 25 µM worked out at 95.2%.
With `C=CC(=O)N1CCC(n2ccnn2)CC1` [3-K09, 1-[4-(1H-1,2,3-triazol-1-yl)piperidin-1-yl]prop-2-en-1-one], the viability at 48 h, 25 µM was 65.2%.
Next, `C=CC(=O)N1CCCN(S(N)(=O)=O)CC1` [3-K10, 4-(prop-2-enoyl)-1,4-diazepane-1-sulfonamide]: 98.5%; `C=CC(=O)N1CCOC(c2cnn(C)c2)C1` (centres unmarked) [3-K11, 1-[2-(1-methyl-1H-pyrazol-4-yl)morpholin-4-yl]prop-2-en-1-one]: 49.9%; `C=CC(=O)N1CCCCC1c1noc(C2CC2)n1` (centres unmarked) [3-K12, 1-[2-(5-cyclopropyl-1,2,4-oxadiazol-3-yl)piperidin-1-yl]prop-2-en-1-one]: 105%.
In the case of `C=CC(=O)NCC(C)(C)C1(O)CCOC1` (centres unmarked) [3-K13, N-[2-(3-hydroxyoxolan-3-yl)-2-methylpropyl]prop-2-enamide], the viability at 48 h, 25 µM came to 68%.
Next, `C=CC(=O)N1CCCC(O)(CC(N)=O)C1` (centres unmarked) [3-K14, 2-[3-hydroxy-1-(prop-2-enoyl)piperidin-3-yl]acetamide]: 101%.
On to `C=CC(=O)NCc1cccc(NS(C)(=O)=O)c1` [3-K15, N-[(3-methanesulfonamidophenyl)methyl]prop-2-enamide], for which the viability at 48 h, 25 µM turned out to be 31.7%.
On to `C=CC(=O)N(CC)CC(=O)N1CCc2c(cccc2NC(C)=O)C1` [3-K16, N-[2-(5-acetamido-1,2,3,4-tetrahydroisoquinolin-2-yl)-2-oxoethyl]-N-ethylprop-2-enamide], for which the viability at 48 h, 25 µM is 90.5%.
Turning to `C=CC(=O)N(C)CC(=O)N1CCCCC1c1nc(C)no1` (centres unmarked) [3-K17, N-methyl-N-{2-[2-(3-methyl-1,2,4-oxadiazol-5-yl)piperidin-1-yl]-2-oxoethyl}prop-2-enamide], the viability at 48 h, 25 µM was 47.9%.

(Values after publication PMC11995724, “Antibiotic target discovery by integrated phenotypic and activity-based profiling of electrophilic fragments” (Cell chemical biology, 2025).)
